Test results reported in patent publication US20220162215A1, “COMPOSITIONS AND METHODS OF USING THE SAME FOR TREATMENT OF NEURODEGENERATIVE AND MITOCHONDRIAL DISEASE” (MITOKININ, INC., priority 2019, published 2022).
≈ marks a conversion by molar mass, not a printed value. Where two headings read alike, the source gives them in different places.

Tests used:
HeLa MKYP cells [1] = assay: Human mitophagy assay (HeLa MKYP, mtKeima FACS, FCCP/oligomycin); assay type: cell-based
Method: (§1) Briefly, HeLa MKYP cells were plated at 10,000 cells/well in 96 well plates along with compounds at various concentrations. Following 16 hrs of incubation, cells were treated with 1 uM FCCP/oligomycin for 6 hours, then analyzed via FACS for the presence of mitochondria in lysosomes (as determined by an emissions spectrum shift from the pH-sensitive mtKeima tag). Examples are shown in FIG. 1 through FIG. 13 below.

[2] = tested on: Hela MKYP (Mito-Keima/YFP-Parkin) cells; assay: Inspection of round cells; conditions: Tables 6A-6D
Method: (§2) Briefly, the Hela MKYP (Mito-Keima/YFP-Parkin) cells were seeded at 10K cells/well. EP/MTK compounds were added at seeding (cells were still in suspension). The cells were incubated with the EP/MTK compounds for 16 hours, then 1 μM FCCP/oligomycin was added for 6 hours. Prior to harvesting, cells were scored by eye under 20× magnification for the presence or absence of crystalline or aggregated compound, or round cells.

HeLa MKYP cells [3] = assay: Toxicity / cell death measured by DAPI staining (take-up); assay type: cell-based; conditions: for Max cell death at 25 uM compound, 1 uM FO / Cell death at 25 μM (no FO): Table 3 Supplement B
Method: H2O2 treatment was performed as a control for cell death as measured by DAPI staining.
as §1, with “tag).” for “tag). Examples are shown in FIG. 1 through FIG. 13 below.”

[4] = Visual inspection of crystallization; assay type: physicochemical; design: key: 1: yes crystals; 0: no crystals; conditions: Tables 5A-5D
Method: as §2

Solubility in 1× PBS = assay type: physicochemical
[5] = Homo sapiens, HeLa, Table 3, read-out: Potency at 1 μM F/O toxin* (EC50 of mitophagy activation)
[6] = Homo sapiens, HeLa, Table 3 Supplement A, as measured in Table 3, read-out: Potency (EC50 Max Mitophagy) (μM)*
[7] = Homo sapiens, HeLa, Table 3 Supplement B, read-out: Mitophagy EC50 (HeLa mKeima assay)
[8] = Table 3, read-out: Potency at 1 μM F/O toxin* (EC50 of mitophagy activation)

Compound | EC50 (HeLa MKYP cells [1]; [5]) [µM] | EC50 (HeLa MKYP cells [1]; [6]) [µM] | Inspection of round cells ([2]; 1.6 μM) | Inspection of round cells ([2]; 3.1 μM) | Inspection of round cells ([2]; 6.3 μM) | Inspection of round cells ([2]; 12.5 μM) | Inspection of round cells ([2]; 25.0 μM) | Inspection of round cells ([2]; 50.0 μM) | Toxicity (% positive for DAPI takeup @ 50 μM) (HeLa MKYP cells [3]; Table 3) [%] | Visual inspection of crystallization ([4]; 1.6 μM) | Visual inspection of crystallization ([4]; 3.1 μM) | Visual inspection of crystallization ([4]; 6.3 μM) | Visual inspection of crystallization ([4]; 12.5 μM) | Visual inspection of crystallization ([4]; 25.0 μM) | Visual inspection of crystallization ([4]; 50.0 μM) | solubility (Solubility in 1× PBS) [µM] | Max cell death at 25 uM compound, 1 uM FO (HeLa MKYP cells [3]) [%] | Cell death at 25 μM (no FO) (HeLa MKYP cells [3]) [%] | EC50 (HeLa MKYP cells [1]; [7]) [µM] | other results
C[C@@H](Nc1ncnc2[nH]cnc12)c1ccccc1 [Compound 52] | > 50 | > 25 | 0 | 0 | 0 | 0 | 0 | 0 | 10.1 | 0 | 0 | 0 | 0 | 0 | 0 |  |  |  |  | Toxicity (% positive for DAPI take-up at 50 μM)* (HeLa MKYP cells [3]; Table 3 Supplement A, listed as EP-0036297): 10.14%
COc1ncc(CNc2ncnc3[nH]c(C(F)(F)F)cc23)cn1 [Compound 66] | 10.6 | 10.6 | 0 | 0 | 0 | 0 | 1 | 1 | 5.8 | 0 | 0 | 0 | 0 | 1 | 1 |  |  |  |  | Toxicity (% positive for DAPI take-up at 50 μM)* (HeLa MKYP cells [3]; Table 3 Supplement A): 5.76%
c1ncc(CNc2ncnc3[nH]cnc23)cn1 [Compound 67] | 4.4 | 4.42 | 0 | 0 | 0 | 0 | 0 | 0 |  | 0 | 0 | 0 | 0 | 0 | 0 |  |  |  |  | Toxicity (% positive for DAPI take-up at 50 μM)* (HeLa MKYP cells [3]; human): 5.33%; Toxicity (% positive for DAPI takeup @ 50 μM) (HeLa MKYP cells [3]; human): 5.3%
CCCCNc1ncnc2[nH]c(C(F)(F)F)c(C)c12 [Compound 68] | > 50 | > 25 | 0 | 0 | 0 | 0 | 0 | 0 | 11.9 | 0 | 0 | 0 | 0 | 0 | 0 |  |  |  |  | Toxicity (% positive for DAPI take-up at 50 μM)* (HeLa MKYP cells [3]; Table 3 Supplement A): 11.94%
CCCCNc1ncnc2c1cc(C(F)(F)F)n2C(C)=O [Compound 69] | > 50 |  | 0 | 0 | 0 | 0 | 0 | 0 | 36.6 | 0 | 0 | 0 | 0 | 0 | 0 |  |  |  |  | 
C[C@@H](Nc1ncnc2[nH]c(C(F)(F)F)cc12)c1cncnc1 [Compound 70] | 21.6 | 21.6 | 0 | 0 | 0 | 0 | 0 | 0 |  | 0 | 0 | 0 | 0 | 0 | 0 |  |  |  |  | Toxicity (% positive for DAPI take-up at 50 μM)* (HeLa MKYP cells [3]; human): 22.95%; Toxicity (% positive for DAPI takeup @ 50 μM) (HeLa MKYP cells [3]; human): 22.9%
CC(Nc1ncnc2[nH]cnc12)c1ccccc1 (stereo not drawn) [Compound 71] | 3.5 | 2.69 | 0 | 0 | 0 | 0 | 0 | 0 | 18.2 | 0 | 0 | 0 | 0 | 0 | 0 |  |  |  |  | Toxicity (% positive for DAPI take-up at 50 μM)* (HeLa MKYP cells [3]; Table 3 Supplement A): 22.24%
O[C@H]1Cc2ccccc2[C@H]1Nc1ncnc2[nH]c(C(F)(F)F)cc12 [Compound 83] | > 50 |  |  |  |  |  |  |  | 21.2 |  |  |  |  |  |  | 194 (≈ 64.9 µg/mL) | 21.2 | 2.75 |  | Mitophagy EC50 (HeLa mKeima assay) (HeLa MKYP cells [1]; Table 3 Supplement B): Minimal activity
O[C@@H]1Cc2ccccc2[C@@H]1Nc1ncnc2[nH]c(C(F)(F)F)cc12 [Compound 84] | 9 |  |  |  |  |  |  |  | 35.6 |  |  |  |  |  |  | 194 (≈ 64.9 µg/mL) | 35.6 | 5.5 | 9.04 | 
COc1ccc2c(c1)[C@@H](Nc1ncnc3[nH]c(C(F)(F)F)cc13)CCC2 [Compound 86] |  |  |  |  |  |  |  |  | 3.2 |  |  |  |  |  |  | 1.2 (≈ 0.435 µg/mL) |  |  |  | EC50 (HeLa MKYP cells [1]; [8]): 4 µM; EC50 (HeLa MKYP cells [1]; Table 3 Supplement B, listed as EP-0037130, read-out: Mitophagy EC50 (HeLa mKeima assay)): 3.99 µM; Max cell death at 25 uM compound, 1 uM FO (HeLa MKYP cells [3]; listed as EP-0037130): 3.18%; Cell death at 25 μM (no FO) (HeLa MKYP cells [3]; listed as EP-0037130): 1.18%
COc1ccc2c(c1)[C@@H](Nc1ncnc3[nH]c(C(F)(F)F)cc13)CCC2 [Compound 87] |  |  |  |  |  |  |  |  | 5.9 |  |  |  |  |  |  | 1.2 (≈ 0.435 µg/mL) |  |  |  | EC50 (HeLa MKYP cells [1]; [8]): 9.5 µM; EC50 (HeLa MKYP cells [1]; Table 3 Supplement B, listed as EP-0037131, read-out: Mitophagy EC50 (HeLa mKeima assay)): 9.46 µM; Max cell death at 25 uM compound, 1 uM FO (HeLa MKYP cells [3]; listed as EP-0037131): 5.9%; Cell death at 25 μM (no FO) (HeLa MKYP cells [3]; listed as EP-0037131): 1.2%
OC1CCc2ccccc2C1Nc1ncnc2[nH]c(C(F)(F)F)cc12 (stereo not drawn) [Compound 91] | > 50 |  |  |  |  |  |  |  | 12.8 |  |  |  |  |  |  | 1 (≈ 0.348 µg/mL) | 12.8 | 3.79 |  | Mitophagy EC50 (HeLa mKeima assay) (HeLa MKYP cells [1]; Table 3 Supplement B): Minimal activity
CC(=O)N1CCC(Nc2ncnc3[nH]c(C(F)(F)F)cc23)c2ccccc21 (stereo not drawn) [Compound 93] |  |  |  |  |  |  |  |  | 6.9 |  |  |  |  |  |  | 1.32 (≈ 0.495 µg/mL) | 6.92 | 2.69 | 17.3 | 
OC[C@H]1CCc2ccccc2[C@@H]1Nc1ncnc2[nH]c(C(F)(F)F)cc12 [Compound 95] | 5.5 |  |  |  |  |  |  |  | 30.9 |  |  |  |  |  |  | 9.07 (≈ 3.29 µg/mL) | 30.87 | 9.83 | 5.55 | 
CO[C@@H]1COc2ccccc2[C@@H]1Nc1ncnc2[nH]c(C(F)(F)F)cc12 [Compound 96] | 1.6 |  |  |  |  |  |  |  | 12.1 |  |  |  |  |  |  | 23.8 (≈ 8.67 µg/mL) | 12.11 | 3.4 | 1.63 | 
CO[C@@H]1COc2ccccc2[C@H]1Nc1ncnc2[nH]c(C(F)(F)F)cc12 [Compound 97] | 6.3 |  |  |  |  |  |  |  | 10.6 |  |  |  |  |  |  | 16.4 (≈ 5.97 µg/mL) | 10.645 | 2.61 | 6.32 | 
CO[C@H]1COc2ccccc2[C@@H]1Nc1ncnc2[nH]c(C(F)(F)F)cc12 [Compound 98] |  |  |  |  |  |  |  |  | 15.9 |  |  |  |  |  |  | 16.3 (≈ 5.94 µg/mL) |  |  |  | EC50 (HeLa MKYP cells [1]; Table 3 Supplement B, listed as EP-0037863, read-out: Mitophagy EC50 (HeLa mKeima assay)): 4 µM; Max cell death at 25 uM compound, 1 uM FO (HeLa MKYP cells [3]; listed as EP-0037863): 15.865%; Cell death at 25 μM (no FO) (HeLa MKYP cells [3]; listed as EP-0037863): 3.66%
CO[C@H]1COc2ccccc2[C@H]1Nc1ncnc2[nH]c(C(F)(F)F)cc12 [Compound 99] | 13.3 |  |  |  |  |  |  |  | 3.6 |  |  |  |  |  |  | 20.9 (≈ 7.61 µg/mL) | 3.555 | 2.49 | 13.3 | 
